According to patent US20240327829A1, “CONJUGATE OF SAPONIN, OLIGONUCLEOTIDE AND GALNAC” (priority 2020, published 2024):
Like-named read-outs stand apart in the source and are kept apart here. [BNA] = bridged nucleic acid (BNA) nucleotide, BNA type not stated for this oligo; [BNANC] = BNA^NC (2'-O,4'-aminoethylene bridged) nucleotide; {C6SH} = thiol C6 linker; d = 2'-deoxy (DNA)

How the values were obtained:
[1] = Endosomal escape enhancing activity of saponin; conditions: compared with SO1861
[2] = tested on: apoB gene expression in HepG2 cells; assay: ApoB gene silencing (gene expression analysis); assay type: cell-based, human
Method: (§1) RNA from cells was isolated and analysed according to standard protocols (Biorad). qPCR primers that were used are indicated in Table A2.
(§2) RNA isolation and gene expression analysis from primary mouse and human hepatocytes RNA from cells was isolated using TRI Reagent® Solution (Thermo Scientific) according to the manufacturer's instruction. Conversion into cDNA was performed using iScript™ cDNA Synthesis Kit (BioRad) using standard protocols. ApoB expression levels and levels of specific hepatocyte housekeeping genes were determined using quantitative real-time PCR assays (qRT-PCR) using iTaq™ Universal SYBR® Green Supermix (BioRad) and the Light Cycler 480 (Roche Diagnostics, Rotkreuz, Switzerland) with specific DNA primers, listed in Table A4 (study A) and Table A7 (study B), respectively. Analysis was done by the […] to determine apoB expression relative to 2 hepatocyte-specific housekeeping control mRNAs. Each analysis reaction was performed in triplicate.

[3] = tested on: apoB gene expression in Huh7 cells; assay: ApoB gene silencing (gene expression analysis); assay type: cell-based, human; conditions: for IC50: + fixed 4000 nM trivalent-GalNAc-L-SO1861 (DAR1)
Method: as §1, §2

[4] = tested on: HSP27 gene expression in Huh7 cells; assay: HSP27 gene silencing (gene expression analysis, qPCR); assay type: cell-based, human; conditions: + fixed 4000 nM SO1861-EMCH
From the text: as §1

[5] = tested on: HSP27 gene expression in HepG2 cells; assay: as above; assay type: cell-based, human; conditions: + fixed 4000 nM SO1861-EMCH
From the text: as §1

[6] = tested on: primary human hepatocytes; assay: Cell viability of primary human hepatocytes; assay type: cell-based; conditions: combined with 10 pM CD71-saporin
Method: Briefly, the MTS solution was diluted 20× in DMEM without phenol red (PAN-Biotech GmbH) supplemented with 10% FBS. The cells were washed once with 200 μL/PBS well, after which 100 μL diluted MTS solution was added/well. The plate was incubated for approximately 20-30 minutes at 37° C.

[7] = In vivo tolerability (clinical observations, body weight); parameters: species or system C57BL/6J mice; conditions: Study A; doses and regimens of Table A5
Method: (§3) • i. Dose administration and in-life phase. Per group, 8 C57BL/6J male mice for treatment groups (in Study A, 14 mice in vehicle control group), approximately 6-7 weeks at arrival and 8-9 weeks at dosing, were dosed. The compounds, formulated in PBS or PBS alone (vehicle) according to Table A5 and Table A6, were dosed at 5 ml/kg in the tail vain (intravenously, iv), with dose volumes corresponding to the individual bodyweights. Where applicable, trivalent (GalNAc)3-SO1861 (EMCH) was co-administered at 5 ml/kg in the tail vain (iv) right after the trivalent GalNAc-ApoB conjugate. Animals were weighed weekly and clinical observations were performed 2-3 times daily within the first 48 hrs, and at least once daily thereafter until study end. • ii. Sampling of serum, liver, and kidney tissue. […] At the relevant inter-study post-dose timepoints, 3 animals per timepoint per treatment group (6 animals in the vehicle control group in Study A) were sacrificed to collect terminal bleeds and collect relevant organs, such as liver and kidney tissues for further analyses. at end of study, the remaining 2 animals (4 in the control group in Study A) per group were sacrificed. One half of the liver and one kidney was frozen and used for tissue RNA analysis.

LDL-cholesterol = assay: Serum LDL-cholesterol (LDL-C) analysis; assay type: in vivo, C57BL/6J mice; conditions: for serum LDL-C reduction compared to vehicle: Study A
Method: as §3
LDL-cholesterol was measured in mouse serum, using an LDL-cholesterol specific two-step AU480 assay kit, respectively, from Beckman Coulter, with a photometric measurement according to the manufacturer's instructions.

apoB RNA in liver tissue = assay: ApoB expression analysis in liver tissue (qRT-PCR); assay type: in vivo, C57BL/6J mice; conditions: for apoB RNA levels in liver, reduction compared to vehicle: Study A
Method: as §3
The mRNA was isolated from frozen liver tissue using TRzol® Reagent (Thermo Scientific) according to the manufacturer's instruction. Conversion into cDNA was performed using Script™ cDNA Synthesis Kit (BioRad). ApoB expression levels and levels of specific liver housekeeping genes were determined using quantitative real-time PCR assays (qRT-PCR) using iTaq™ Universal SYBRO Green Supermix (BioRad) and the Light Cycler 480 (Roche Diagnostics, Rotkreuz, Switzerland) with specific DNA primers, listed in Table A4 (Study A) and Table A7 (Study B), respectively. Analysis was done by the ΔCt method to determine apoB expression relative to 2 liver-specific housekeeping control mRNAs. Each analysis reaction was performed in triplicate.

[8] = tested on: apoB mRNA in primary human hepatocytes; assay: apoB mRNA expression analysis in primary human hepatocytes; assay type: cell-based; conditions: read-out: apoB RNA levels IC50
Method: as §1, §2

apoB protein = assay: Serum apoB protein analysis (ELISA); assay type: in vivo, C57BL/6J mice; conditions: Study B; 72 hrs; 2 mg/kg iv; vehicle 156 μg/ml
Method: as §3, with “Where applicable, trivalent (GalNAc)3-SO1861 (EMCH) was co-administered at 5 ml/kg in the tail vain (iv) right after the trivalent GalNAc-ApoB conjugate.” left out
ApoB protein levels in mouse serum was determined using an ApoB ELISA (ab230932, Abcam, Cambridge, UK), according to the manufacturer's instruction.

[9] = tested on: apoB protein expression in Huh7 cells; assay: apoB protein expression in Huh7 hepatocyte cell line; assay type: cell-based, human
[10] = + fixed 4000 nM trivalent-GalNAc-L-SO1861 (DAR1)
[11] = + 300 nM TrivalentGalNAc-SPT001

CC(=O)OC1C(C)OC(OC2C(C)OC(OC(=O)[C@]34CCC(C)(C)CC3C3=CCC5[C@@]6(C)CC[C@H](OC7OC(C(=O)O)C(O)C(OC8OCC(O)C(O)C8O)C7OC7OC(CO)C(O)C(O)C7O)[C@@](C)(C=O)C6CC[C@@]5(C)[C@]3(C)C[C@H]4O)C(OC3OC(C)C(OC4OCC(O)C(OC5OCC(O)C(O)C5O)C4O)C(OC4OCC(O)C(O)C4O)C3O)C2O)C(O)C1O (some centres unmarked) [SO1832]
endosomal escape enhancing activity towards an oligonucleotide (or protein toxin) in the endosome [1]: about equally active as SO1861

trivalent-GalNAc-L-ApoBBNA: ApoBBNA (SEQ ID NO: 2) conjugated to trivalent-GalNAc, labile conjugation (GCCTCAGTCTGCTTCGCACC; sugars from the 5' end [BNA]5 d10 [BNA]5, backbone and methylation of C not given here; further chemistry not fully specified)
IC50 ([2]; + fixed 4000 nM SO1861-EMCH): 10 nM | IC50 [2, 10]: 50 nM | IC50 [3]: 700 nM

trivalent-GalNAc-S-HSP27BNA: HSP27BNA (SEQ ID NO: 1) conjugated to trivalent-GalNAc, stable conjugation (GGCACAGCCAGTGGCG; sugars from the 5' end [BNANC]3 d10 [BNANC]3, backbone and methylation of C not given here; further chemistry not fully specified)
IC50 [4]: 3 nM | IC50 [5]: 0.1 nM

CC(=O)OC1C(C)OC(OC2C(C)OC(OC(=O)[C@]34CCC(C)(C)CC3C3=CCC5[C@@]6(C)CC[C@H](OC7OC(C(=O)O)C(O)C(OC8OCC(O)C(O)C8O)C7OC7OC(CO)C(O)C(O)C7O)[C@@](C)(/C=N/NC(=O)CCCCCN7C(=O)C=CC7=O)C6CC[C@@]5(C)[C@]3(C)C[C@H]4O)C(OC3OC(C)C(OC4OCC(O)C(OC5OC(CO)C(O)C(O)C5O)C4O)C(O)C3O)C2O)C(O)C1OC1OCC(O)C(O)C1O (some centres unmarked) [SO1861-EMCH]
increase of potency (factor) when cell viability of liver cells is considered [6]: ~10

ApoB #02 BNA: BNA^NC oligonucleotide 5′-GCattggtatTCA-3′ [SEQ ID NO: 12], fully phosphorothioated, murine and human sequence-compatible, apoB-targeting (GCATTGGTATTCA; sugars from the 5' end [BNANC]2 d8 [BNANC]3, all phosphorothioate, 5' {C6SH}, methylation of C not given here)
tolerability [7]: well tolerated | serum LDL-C reduction compared to vehicle (LDL-cholesterol; 24 hrs, 0.1 mg/kg iv): not noticeably reduced | serum LDL-C reduction compared to vehicle (LDL-cholesterol; 24 hrs, 1 mg/kg iv): not noticeably reduced | serum LDL-C reduction compared to vehicle (LDL-cholesterol; 24 hrs, 2 mg/kg iv): not noticeably reduced | serum LDL-C reduction compared to vehicle (LDL-cholesterol; 72 hrs, 2 mg/kg iv): ~50% | serum LDL-C reduction compared to vehicle (LDL-cholesterol; 336 hrs, 2 mg/kg iv): ~40% | serum LDL-C level (LDL-cholesterol; Study B, 72 hrs, 2 mg/kg iv, vehicle 4 mg/dl): 2 mg/dL | apoB RNA levels in liver, reduction compared to vehicle (apoB RNA in liver tissue; 24 hrs, 0.1 mg/kg iv): not noticeably reduced | apoB RNA levels in liver, reduction compared to vehicle (apoB RNA in liver tissue; 24 hrs, 1 mg/kg iv): ~15% | apoB RNA levels in liver, reduction compared to vehicle (apoB RNA in liver tissue; 24 hrs, 2 mg/kg iv): ~21% | apoB RNA levels in liver, reduction compared to vehicle (apoB RNA in liver tissue; 72 hrs, 2 mg/kg iv): 39% | apoB RNA levels in liver, reduction compared to vehicle (apoB RNA in liver tissue; 336 hrs, 2 mg/kg iv): 30% | apoB RNA levels in liver, % of vehicle control (apoB RNA in liver tissue; Study B, 72 hrs, 2 mg/kg iv): 53% | IC50 ([8]; relative ApoB #02 BNA concentration, no transfection agent): 400 nM | IC50 ([8]; transfection with RNAi-MAX): 8 nM | serum apoB protein level (apoB protein): 57 µg/mL

trivalent-GalNAc-S-ApoBBNA: ApoBBNA (SEQ ID NO: 2) conjugated to trivalent-GalNAc, stable conjugation (GCCTCAGTCTGCTTCGCACC; sugars from the 5' end [BNA]5 d10 [BNA]5, backbone and methylation of C not given here; further chemistry not fully specified)
IC50 ([2]; + fixed 4000 nM SO1861-EMCH): 10 nM | IC50 [2, 10]: 50 nM | IC50 [3]: 700 nM

(GalNAc)3-ApoB: trivalent GalNAc conjugated with ApoB antisense BNA oligonucleotide (SEQ ID NO: 2); linker type not stated (GCCTCAGTCTGCTTCGCACC; sugars from the 5' end [BNA]5 d10 [BNA]5, backbone and methylation of C not given here; further chemistry not fully specified)
lowering of apoB mRNA expression [3, 11]: neither TrivalentGalNAc-ApoBBNA, nor the combination of TrivalentGalNAc-ApoBBNA and TrivalentGalNAc-SPT001 induce lowering | lowering of apoB mRNA expression ([3]; alone): neither TrivalentGalNAc-ApoBBNA, nor the combination of TrivalentGalNAc-ApoBBNA and TrivalentGalNAc-SPT001 induce lowering | lowering of apoB protein expression [9, 11]: neitherTrivalentGalNAc-ApoBBNA, northe combination ofTrivalentGalNAc-ApoBBNA and TrivalentGalNAc-SPT001 induced marked lowering | lowering of apoB protein expression ([9]; alone): neitherTrivalentGalNAc-ApoBBNA, northe combination ofTrivalentGalNAc-ApoBBNA and TrivalentGalNAc-SPT001 induced marked lowering

trivalent-GalNAc-L-HSP27BNA: HSP27BNA (SEQ ID NO: 1) conjugated to trivalent-GalNAc, labile conjugation (GGCACAGCCAGTGGCG; sugars from the 5' end [BNANC]3 d10 [BNANC]3, backbone and methylation of C not given here; further chemistry not fully specified)
IC50 [4]: 3 nM | IC50 [5]: 0.1 nM
